Data as given in patent US7737256B2, “Antibody against uPA/uPAR” (Fondazione Centro San Raffaele Del Monte Tabor, priority 2001, dated 2010).

Legend:
[1] = target: FPRL1/LXA4R, seven trans-membrane G-protein-coupled receptor (human) (UniProt P25090); assay: cell-based or functional assay
[2] = tested on: THP-1 cells; assay: chemotaxis of THP-1 cells (modified Boyden chambers); type: cell-based, human
Procedure: (§1) Chemotaxis assays were performed as described (Degryse, 1999) with modified Boyden chambers using filters (5 μm pore size, Corning) treated with collagen I (100 μg/ml) and fibronectin (10 μg/ml, Boehringer Mannheim). 20,000-40,000 cells in serum-free DMEM were added to the upper well while the chemoattractants were added to the lower well. When present, antibodies or desensitizing molecules were pre-incubated with the cells for one hour and were then added to both wells of Boyden chambers during the chemotaxis assay. Migration lasted for […] in the case of THP-1 cells and 4-6 hours for the HEK293 or HEK293/FPRL1 cells. After migration at 37° C., cells remaining on the upper surface of filters were scraped off, the filters were fixed in methanol and stained in a solution of 10% (w/v) crystal violet in 20% (v/v) methanol. The experiments were performed in triplicate and the results presented represent the mean ±SD of the number of cells counted in ten high power fields per filter and are representative of at least three experiments. Random cell migration, i. e. migration in the absence of chemoattractant, was given the arbitrary value of 100%.

[3] = tested on: Human peripheral blood monocytes; assay: chemotaxis of peripheral blood monocytes; type: cell-based; conditions: fresh human monocytes, FIG. 13
Procedure: as §1
THP-1 cells have been described before (Resnati, 1996). […] The purity of the separated populations was determined by flow cytometry analyses with anti-CD14 monoclonal antibodies.

[4] = tested on: HIV-1 in U1 cells; assay: PMA-induced HIV-1 reactivation in U1 cells (RT activity); type: cell-based
Procedure: Cell Lines p U1 cells were stimulated at the density of 2×10^5 cells per ml in RPMI 1640 (Whittaker M. A. Bioproducts, Walkerville, Md.) containing 10% FCS. Cells were preincubated with uPA, uPAR, suPA, R2, R3, R4, R5 antibodies for 20 min at 37° C. prior to addition of stimuli. U1 parental cell line U937 was used as a control in the transfection experiments. U937 cells were purchased from ATCC and maintained in RPMI 1640 medium in the presence of FCS before and after infection with the X4 HIV-1LAI/IIIB. For infection, cells were seeded at 2×10^5 cells/ml in 96-well flat bottomed plates (Falcon, Becton-Dickinson Labware, Lincoln Park, N.J.) and infected with 1−2×10^7 virus particles diluted from a stock of pelleted virus (Advanced Biotechnology, Inc., Columbia, Md.). After infection, 2 h at 37° C., cells were washed and resuspended in RPMI 1640 medium.
Viral expression was monitored by determination of Mg^2+-dependent Reverse Trascriptase (RT) activity in culture supernatants (Poli, 1990). In particular, 5 microliters of supernatants was added to 25 microliters of a mixture containing poly(A), oligo(dT) (Pharmacia Fine Chemicals, Piscataway, N.J.), MgC12, and 32P-labeled deoxythymidine 5′-triphosphate (dTTP) (Amersham Corp., Arlington Heights, Ill.), and incubated for 2 h at 37°°C. 6 microliters of the mixture was spotted onto DE81 paper, air dried, washed five times in 2× SSC buffer, and two additional times in 95% ethanol. The paper was then dried and counted on a scintillation counter (LS 5000, Beckman Instruments, Inc., Fullerton, Calif.).
For all experiments, culture supernatants were collected every day for five days, in the case of cell line, or every three days for infection of U937 and primary cells. Reagents were replenished every time culture medium was changed. Data representative of one out of three independent experiments are shown. Results are presented as means of triplicate cultures, and the error bar show the standard deviation from the mean.

[5] = tested on: HEK293 cells; assay: chemotaxis of HEK293 cells; type: cell-based, human; conditions: untransfected HEK293, FIG. 10
Procedure: (§2) The THP-1 cells used in the present example have been previously described (Resnati, 1996). Human HEK293 cells were kindly donated by Dr. Hal Chapman and human HEK293/FPRL1 from Dr. J. M. Wang. […] HEK293/FPRL1 cells have been generated by transfection of FPRL1 cDNA in HEK293 cells (Murphy, 1996).
as §1, with “Random cell migration, i. e. migration in the absence of chemoattractant, was given the arbitrary value of 100%.” left out

[6] = tested on: HEK293/FPRL1 cells; assay: chemotaxis of HEK293 transfected with FPRL1/LXA4R; type: cell-based, human; conditions: FIG. 10
Procedure: as §2
as §1, with “Random cell migration, i. e. migration in the absence of chemoattractant, was given the arbitrary value of 100%.” left out

[7] = chemotaxis-promotion by uPAR peptides (data not shown); type: cell-based

Sequence of UniProt P25090 (P25090 whole entry): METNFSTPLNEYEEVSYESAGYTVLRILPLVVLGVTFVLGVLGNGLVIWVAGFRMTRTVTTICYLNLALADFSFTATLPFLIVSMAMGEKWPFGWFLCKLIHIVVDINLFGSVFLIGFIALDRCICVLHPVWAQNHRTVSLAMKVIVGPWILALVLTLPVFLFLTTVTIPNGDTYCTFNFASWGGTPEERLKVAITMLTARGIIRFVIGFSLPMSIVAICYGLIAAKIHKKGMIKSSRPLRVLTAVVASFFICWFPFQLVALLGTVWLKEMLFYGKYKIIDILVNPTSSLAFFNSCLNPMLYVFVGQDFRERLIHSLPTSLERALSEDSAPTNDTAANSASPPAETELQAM

D2D388-278, D2D3 fragment obtained by cleavage of suPAR with chymotrypsin (from UniProt Q03405 110-300) (receptor)
chemotaxis of HEK293 cells transfected with FPRL1/LXA4R [1]: 0.1 nM

CSCC[C@H](NC=O)C(=O)N[C@@H](CC(C)C)C(=O)N[C@@H](Cc1ccccc1)C(=O)O [fMLP, formyl-methionyl-leucyl-phenylalanine]
de-sensitization against D2D388-279 and ATF ([2]; 20 μM): de-sensitized | effect on MCP-1 chemotaxis (de-sensitization) ([2]; THP-1 cells, FIG. 9B): did not affect | IC50 ([2]; THP-1 cells, FIG. 9B, read-out: concentration inhibiting D2D388-279 chemotaxis by 50% (de-sensitization)): 10 to 20 µM | effect on MCP-1 chemotaxis (de-sensitization) ([2]; THP-1 cells, very high concentrations (200 μM)): marginally

MCP-1: monocytes chemotactic protein-1 [reference compound]
induction of chemotaxis [3]: induce chemotaxis | induction of chemotaxis ([2]; THP-1 cells): induce chemotaxis

TGF-β [reference compound]
inhibition of PMA-induced HIV-1 replication/expression ([4]; pro-uPA 10 nM, TGF-beta 5 ng/ml, alone or combined, FIG. 4C): 60%

D2D388-279: chymotrypsin-cleaved, soluble, purified form of uPAR endowed with potent chemotactic activity
induction of chemotaxis [3]: induce chemotaxis | chemotactic response of the cells [5]: do not respond | chemotactic response of the cells [6]: respond well | concentration of maximum chemotactic response [6]: about 0.1 nM

AVTYSRSRYLEC (listed as Homo sapiens)
chemotaxis-promotion [7]: active | chemotaxis-promotion after cleavage with plasmin ([7]; peptide cleaved with plasmin, data not shown): destroyed the activity

suPAR: recombinant soluble uPAR which specifically binds pro-uPA
effect on the inhibition of PMA-induced HIV-1 expression by pro-uPA ([4]; with pro-uPA, FIG. 2D, FIG. 3): blocked

SRSRY (listed as Homo sapiens)
chemotaxis-promotion [7]: active

ATF: amino terminal fragment of uPA with full receptor-binding and no enzymatic activity
induction of chemotaxis ([2]; THP-1 cells): induce chemotaxis | chemotactic response of the cells [5]: do not respond | effect on PMA-induced HIV-1 expression ([4]; PMA 10 nM, FIG. 2): fully reproduces the pro-uPA effect
